Patent US9238631B2, “Radiolabeled amino acids for diagnostic imaging” (PIRAMAL IMAGING SA, priority 2011, dated 2016)

Legend:
NCI-H460 tumor [1] = test: In vivo biodistribution in NCI-H460 tumor bearing mice; conditions: for T/Blood / T/Muscle: 1 h post injection
Description: (§1) To test the pharmacokinetic properties of compounds from the present invention, all F18-labeled compounds were examined by biodistribution studies in NCI-H460 tumor bearing mice. Female NMRI (nu/nu) mice were inoculated with 5×10^6 NCI-H460 tumor cells 8 to 10 days before the biodistribution studies. 185 kBq of activity of the fluorinated compound was injected and at least n=3 mice were used for every time point. After injection of the F18-labeled compound, mice were sacrificed at defined time-points. All organs were removed and radioactivity was determined using a γ-counter.
To compare the tumor uptake and retention of radioactivity of different ^18F-labeled derivatives from the present invention, biodistribution studies were performed in NCI-H460 tumor bearing NMRI (nu/nu) mice as described above.
To compare the kidney clearance of several ^18F-labeled derivatives from the present invention, biodistribution studies were performed in NCI-H460 tumor bearing female NMRI (nu/nu) mice as described above. […] After 2 h p.i., less than 1% ID/g can be found in the kidneys.
For comparison of pancreas uptake and clearance of several ^18F-labeled derivatives from the present invention, biodistribution studies were performed in NCI-H460 tumor bearing NMRI (nu/nu) mice as described above. […] After 2 h p.i., less than 2% ID/g can be found in the pancreas.
as §1, with “and” for “for every time point. After injection of the F18-labeled compound, mice were”, “time-points raning from 15 min pi up to 2 h p.i.” for “time-points.”, “γ-counter. […] High tumor uptake values of >3% ID/g were obtained with various compounds from the present invention.” for “γ-counter.”

NCI-H460 tumor [2] = test: PET imaging in NCI-H460 tumor bearing nude-rats; type: in vivo; conditions: PET ROI analysis, 1 h p.i.
Description: c) Beside PET-imaging studies in mice, also the imaging properties of [^18F]-12 in rats were examined. NCI-H460 tumor cells were inoculated into the right flank of nude-rats (RH-Foxn1 nu/nu) 8 to 10 days before the PET study. PET images were acquired at 60 min after injection of approximately 10 MBq for 10 minutes. The H460 tumor was nicely visible (0.9% ID/g as determined by ROI analysis). Beside some minor uptake into the liver and kidneys due to the excretion of the compound, no uptake into other non-target tissues was observed.
To test the imaging properties, compounds from the present invention were evaluated in PET imaging studies using tumor bearing rats. NCI-H460 tumor cells were inoculated into the right flank of nude-rats (RH-Foxn1 nu/nu) 8 to 10 days before the PET study. PET images were acquired at 60 min after injection of approximately 10 MBq for 10 minutes. After the imaging study, region-of-interest (ROI) analysis was performed and activity in tumor, liver and kidney was determined. […] High tumor uptake values of >1% […] in this rat model were obtained with various compounds from the present invention. A favorable clearance profile of all compounds enables excellent tumor detection in PET imaging studies in tumor bearing rats.

Row | SMILES | Kidney (% ID/g at 1 h p.i.) (NCI-H460 tumor [1]) | Liver (% ID/g at 1 h p.i.) (NCI-H460 tumor [1]) | Pancreas (% ID/g at 1 h p.i.) (NCI-H460 tumor [1]) | Tumor (% ID/g at 1 h p.i.) (NCI-H460 tumor [1]) | Urine (% ID at 1 h p.i.) (NCI-H460 tumor [1]) | T/Blood (NCI-H460 tumor [1]) | T/Muscle (NCI-H460 tumor [1]) | Kidney (% ID/g at 1 h p.i.) (NCI-H460 tumor [2]) | Liver (% ID/g at 1 h p.i.) (NCI-H460 tumor [2]) | Tumor (Max % ID/g at 1 h p.i.) (NCI-H460 tumor [2]) | Tumor (Mean % ID/g at 1 h p.i.) (NCI-H460 tumor [2]) | tumor uptake and retention (summary statement) (NCI-H460 tumor [1]; mouse, in vivo)
1 | N[C@@H](CCC(Cc1ccc(OC[18F])cc1)C(=O)O)C(=O)O (single isomer, unassigned) [[^18F]-41 C5-1] | 3.5 ± 0.7 % ID/g | 0.3 ± 0.1 % ID/g | 2.2 ± 0.3 % ID/g | 6.4 ± 1.4 % ID/g | 85.0 ± 7.7 % ID | 23.4 | 94.2 | 0.5 % ID/g | 0.4 % ID/g | 3.2 % ID/g | 1.2 % ID/g | 
2 | N[C@@H](CCC(Cc1ccc(OC[18F])cc1)C(=O)O)C(=O)O (single isomer, unassigned) [[^18F]-41 C5-2] | 2.4 ± 0.8 % ID/g | 0.3 ± 0.1 % ID/g | 1.1 ± 0.2 % ID/g | 8.7 ± 1.9 % ID/g | 83.5 ± 5.1 % ID | 36.0 | 107.3 | 0.2 % ID/g | 0.2 % ID/g | 4.4 % ID/g | 2.0 % ID/g | 
3 | N[C@@H](CCC(Cc1ccc(OCC[18F])cc1)C(=O)O)C(=O)O (stereo partly drawn) [[^18F]-12 C5-1] [(2S)-2-amino-5-[4-([^18F]fluoroethoxy)benzyl]hexanedioic acid] |  |  |  |  |  |  |  | 0.8 % ID/g | 1.2 % ID/g | 3.4 % ID/g | 1.3 % ID/g | 
4 | N[C@@H](CCC(Cc1ccc(OCC[18F])cc1)C(=O)O)C(=O)O (stereo partly drawn) [[^18F]-12 C5-2] [(2S)-2-amino-5-[4-(fluoroethoxy)benzyl]hexanedioic acid] |  |  |  |  |  |  |  | 0.4 % ID/g | 0.5 % ID/g | 3.7 % ID/g | 1.6 % ID/g | 
5 | N[C@H](CCC(Cc1ccc(OCC[18F])cc1)C(=O)O)C(=O)O (stereo partly drawn) [[^18F]-16, (2R)-2-Amino-5-[4-(2-[^18F]fluoroethoxy)benzyl]hexanedioic acid] | 3.4 ± 0.3 % ID/g | 3.3 ± 0.1 % ID/g | 1.4 ± 0.1 % ID/g | 3.6 ± 0.6 % ID/g | 74.5 ± 6.8 % ID | 14.1 | 54.2 | 1.7 % ID/g | 2.3 % ID/g | 2.1 % ID/g | 0.8 % ID/g | 
6 | N[C@@H](CCC(Cc1ccc(NCC[18F])cc1)C(=O)O)C(=O)O (stereo partly drawn) [[^18F]-52, (2S)-2-amino-5-(4-{[2-(^18F)fluoroethyl]amino}benzyl)hexanedioic acid] | 3.5 ± 1.1 % ID/g | 2.6 ± 0.4 % ID/g | 7.5 ± 1.1 % ID/g | 8.2 ± 2.1 % ID/g | 66.8 ± 10.3 % ID | 32.5 | 95.4 |  |  |  |  | high tumor uptake and retention
7 | N[C@@H](CC(Cc1ccc(OC[C@H](O)[C@@H](O)C[18F])cc1)C(=O)O)C(=O)O (stereo partly drawn) [[^18F]-58, 4-(4-{[(2S,3R)-4-(^18F)fluoro-2,3-dihydroxybutyl]oxy}benzyl)-L-glutamic acid] |  |  |  |  |  |  |  | 4.6 % ID/g | 1.7 % ID/g | 0.63 % ID/g | 0.3 % ID/g | 
8 | N[C@@H](CC(Cc1ccc(OC(CO)C[18F])cc1)C(=O)O)C(=O)O (stereo partly drawn) [[^18F]-60, 4-(4-{[1-(^18F)fluoro-3-hydroxypropan-2-yl]oxy}benzyl)-L-glutamic acid] |  |  |  |  |  |  |  | 2.2 % ID/g | 0.9 % ID/g | 2.2 % ID/g | 1.0 % ID/g | 
9 | N[C@@H](CC(Cc1ccc(C[18F])cc1)C(=O)O)C(=O)O (stereo partly drawn) [[^18F]-66, 4-{4-[(^18F)fluoromethyl]benzyl}-L-glutamic acid] |  |  |  |  |  |  |  | 2.9 % ID/g | 1.7 % ID/g | 1.3 % ID/g | 0.7 % ID/g | 

More lines, now with the values ahead:

Row | Kidney (% ID/g at 1 h p.i.) (NCI-H460 tumor [1]) | Liver (% ID/g at 1 h p.i.) (NCI-H460 tumor [1]) | Pancreas (% ID/g at 1 h p.i.) (NCI-H460 tumor [1]) | Tumor (% ID/g at 1 h p.i.) (NCI-H460 tumor [1]) | Urine (% ID at 1 h p.i.) (NCI-H460 tumor [1]) | T/Blood (NCI-H460 tumor [1]) | T/Muscle (NCI-H460 tumor [1]) | Kidney (% ID/g at 1 h p.i.) (NCI-H460 tumor [2]) | Liver (% ID/g at 1 h p.i.) (NCI-H460 tumor [2]) | Tumor (Max % ID/g at 1 h p.i.) (NCI-H460 tumor [2]) | Tumor (Mean % ID/g at 1 h p.i.) (NCI-H460 tumor [2]) | tumor uptake and retention (summary statement) (NCI-H460 tumor [1]; mouse, in vivo) | SMILES
10 |  |  |  |  |  |  |  | 2.4 % ID/g | 0.9 % ID/g | 2.6 % ID/g | 1.2 % ID/g |  | N[C@@H](CC(Cc1ccc(OCC[18F])cn1)C(=O)O)C(=O)O (stereo partly drawn) [[^18F]-17]
11 | 3.9 ± 1.0 % ID/g | 2.3 ± 0.2 % ID/g | 0.7 ± 0.1 % ID/g | 2.3 ± 0.9 % ID/g | 81.0 ± 7.5 % ID | 17.9 | 23.5 |  |  |  |  |  | N[C@@H](CCC(Cc1ccc(OCC[18F])cn1)C(=O)O)C(=O)O (stereo partly drawn) [[^18F]-32, (2S)-2-Amino-5-{[5-(2-[^18F]fluoroethoxy)pyridin-2-yl]methyl}hexanedioic acid]
12 |  |  |  |  |  |  |  | 3.1 % ID/g | 0.2 % ID/g | 0.5 % ID/g | 0.2 % ID/g |  | N[C@@H](CC(Cc1ccc(OCC[18F])c[n+]1[O-])C(=O)O)C(=O)O (stereo partly drawn) [[^18F]-35, 4-{[5-(2-[^18F]fluoroethoxy)-1-oxidopyridin-2-yl]methyl}-L-glutamic acid]
13 | 2.5 ± 0.7 % ID/g | 0.95 ± 0.1 % ID/g | 1.2 ± 0.1 % ID/g | 3.3 ± 1.2 % ID/g | 80.6 ± 10.1 % ID | 28.2 | 71.1 |  |  |  |  |  | N[C@@H](CC(Cc1ccc(OCC[18F])c(O)c1)C(=O)O)C(=O)O (stereo partly drawn) [[^18F]-44, 4-[4-(2-[^18F]fluoroethoxy)-3-hydroxybenzyl]-L-glutamic acid]
14 | 1.8 ± 0.4 % ID/g | 0.2 ± 0.08 % ID/g | 0.8 ± 0.1 % ID/g | 2.8 ± 1.4 % ID/g | 79 ± 7.8 % ID | 23.3 | 30.4 | 0.9 % ID/g | 0.2 % ID/g | 1.6 % ID/g | 0.8 % ID/g |  | N[C@@H](C[C@H](Cc1ccc(OC[18F])cc1)C(=O)O)C(=O)O [[^18F]-48, (4S)-4-{4-[(^18F)fluoromethoxy]benzyl}-L-glutamic acid]
15 |  |  |  |  |  |  |  | 1.0 % ID/g | 0.2 % ID/g | 2.4 % ID/g | 1.1 % ID/g |  | N[C@@H](C[C@@H](Cc1ccc(OC[18F])cc1)C(=O)O)C(=O)O [[^18F]-50, (4R)-4-{4-[(^18F)fluoromethoxy]benzyl}-L-glutamic acid]
16 | 5.2 ± 1.1 % ID/g | 0.7 ± 0.2 % ID/g | 0.2 ± 0.03 % ID/g | 1.0 ± 0.1 % ID/g | 77 ± 6.7 % ID | 9.9 | 25 |  |  |  |  |  | N[C@@H](CC(Cc1ccc(OCC[18F])nc1)C(=O)O)C(=O)O (stereo partly drawn) [[^18F]-56, 4-({6-[2-(^18F)fluoroethoxy]pyridin-3-yl}methyl)-L-glutamic acid]
